Experimental data as given in PMC7522027 (Disease Models & Mechanisms, 2020).

Assays:
[1] = test system: BMP2-induced SMAD1/5-dependent BRE-luc transcriptional reporter; test: BMP2-induced BRE-luc transcriptional reporter assay in HepG2 cells; format: cell-based, human; conditions: HepG2, BMP2 50 ng/ml; cercosporamide 100 nM to 10 µM, LDN-193189 200 nM
Method: For luciferase transcriptional reporter assays, HepG2 cells were seeded in 9-cm plates at ∼60% confluency and transfected with polyethyleneimine (PEI). Twenty-four hours later, the transfected cells were seeded in 24-well plates at ∼60% confluency. Another 24 h later, the cells were serum starved for 6 h. Subsequently the cells were treated with compound or DMSO for 30 min. Thereafter, the cells were stimulated with BMP2 in the presence of compounds (or DMSO) for 16 h (overnight). Subsequently, the cells were washed with PBS and lysed. Luciferase activity was measured using the luciferase reporter assay system from Promega (Leiden, The Netherlands) by a Perkin Elmer luminometer Victor^3 1420. Each DNA transfection mixture was equalized with empty vector when necessary and every experiment was performed in triplicate. β-galactosidase expression construct was co-transfected and β-galactosidase was measured to normalize for differences in transfection efficiency. The BRE-luc reporter construct has been reported previously ([Korchynskyi and ten Dijke, 2002]).

BMPR1B (ALK6) = molecular target: T1, BMPR1B (ALK6) (Homo sapiens, UniProt O00238); test: radiometric protein kinase assay, ALK6; format: biochemical; conditions: [ATP] = 3 μM; Fig. 7G
T1 construct: purchased ProQinase GmbH (Freiburg, Germany); host or cells: bacteria (so in the source)
T1 sequence (O00238 14-502): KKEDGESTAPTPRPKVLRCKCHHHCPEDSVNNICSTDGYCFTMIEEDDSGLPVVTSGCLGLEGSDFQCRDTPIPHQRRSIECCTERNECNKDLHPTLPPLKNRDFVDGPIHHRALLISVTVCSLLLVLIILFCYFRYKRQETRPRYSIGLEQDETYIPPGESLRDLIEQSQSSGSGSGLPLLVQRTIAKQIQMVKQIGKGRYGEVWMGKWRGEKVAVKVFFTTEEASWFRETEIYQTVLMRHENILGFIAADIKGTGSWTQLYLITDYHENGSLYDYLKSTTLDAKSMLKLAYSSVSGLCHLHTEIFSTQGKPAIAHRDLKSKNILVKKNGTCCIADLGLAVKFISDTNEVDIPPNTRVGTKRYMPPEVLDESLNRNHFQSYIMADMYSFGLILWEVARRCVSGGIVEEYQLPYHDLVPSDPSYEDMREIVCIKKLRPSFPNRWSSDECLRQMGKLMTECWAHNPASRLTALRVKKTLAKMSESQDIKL
Method: (§4) IC50 values were calculated using Prism 5.04 for Windows (GraphPad, San Diego, CA, USA; www.graphpad.com). The mathematical model used was ‘Sigmoidal response (variable slope)’ with parameters ‘top’ fixed at 100% and ‘bottom’ at 0%. The fitting method used was a least-squares fit.

TGFB-R1 (ALK5) = molecular target: T2, TGFB-R1 (ALK5) (Homo sapiens, UniProt P36897); test: radiometric protein kinase assay, ALK5; format: biochemical; conditions: [ATP] = 1 μM; Fig. 7K
T2 construct: purchased ProQinase GmbH (Freiburg, Germany); host or cells: bacteria (so in the source)
T2 sequence (P36897 34-503): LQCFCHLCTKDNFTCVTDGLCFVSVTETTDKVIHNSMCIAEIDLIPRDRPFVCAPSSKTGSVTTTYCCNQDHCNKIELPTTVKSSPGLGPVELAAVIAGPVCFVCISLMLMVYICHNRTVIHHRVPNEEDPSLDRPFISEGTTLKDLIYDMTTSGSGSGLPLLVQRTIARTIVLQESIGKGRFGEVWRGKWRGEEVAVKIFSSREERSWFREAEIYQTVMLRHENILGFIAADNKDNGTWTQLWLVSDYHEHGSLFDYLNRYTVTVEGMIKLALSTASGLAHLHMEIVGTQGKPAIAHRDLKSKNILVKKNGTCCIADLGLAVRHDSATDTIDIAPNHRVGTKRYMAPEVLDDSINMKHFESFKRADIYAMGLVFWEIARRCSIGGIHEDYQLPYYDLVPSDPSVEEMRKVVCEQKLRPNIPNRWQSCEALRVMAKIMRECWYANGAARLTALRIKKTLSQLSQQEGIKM
Method: as §4

ACV-R1 (ALK2) = molecular target: T3, ACV-R1 (ALK2) (Homo sapiens, UniProt Q04771); test: radiometric protein kinase assay, ALK2; format: biochemical; conditions: [ATP] = 3 μM; Fig. 7B
T3 construct: purchased ProQinase GmbH (Freiburg, Germany); host or cells: bacteria (so in the source)
T3 sequence (Q04771 21-509): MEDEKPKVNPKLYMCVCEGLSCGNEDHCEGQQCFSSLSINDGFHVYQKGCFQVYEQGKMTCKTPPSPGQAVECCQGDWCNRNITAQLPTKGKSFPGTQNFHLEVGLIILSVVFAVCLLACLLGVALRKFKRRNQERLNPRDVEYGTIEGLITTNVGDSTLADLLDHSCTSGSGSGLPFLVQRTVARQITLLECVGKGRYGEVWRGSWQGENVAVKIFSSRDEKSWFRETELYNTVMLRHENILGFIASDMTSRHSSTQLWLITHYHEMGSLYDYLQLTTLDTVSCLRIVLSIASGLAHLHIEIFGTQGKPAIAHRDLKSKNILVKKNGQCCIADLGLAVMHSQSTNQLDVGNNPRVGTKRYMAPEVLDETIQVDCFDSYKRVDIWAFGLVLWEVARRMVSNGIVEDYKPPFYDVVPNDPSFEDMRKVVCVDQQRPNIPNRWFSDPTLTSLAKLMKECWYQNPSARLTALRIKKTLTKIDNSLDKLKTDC
Method: as §4

[2] = test system: BMP2-induced SMAD1/5 phosphorylation; test: BMP2-induced SMAD1/5 phosphorylation in HepG2 cells (immunoblot); format: cell-based, human; conditions: HepG2, BMP2 50 ng/ml; high concentrations (range 100 nM to 10 µM)
Method: (§1) For BMP stimulation, the HepG2 cells (∼50% confluency) were starved on serum-free medium for 6 h. Subsequently, prior to the addition of BMP ligands, the cells were treated with compound for 30 min. Next, the cells were stimulated with BMP2 (50 ng/ml) or BMP6 (50 ng/ml) for 45 min. The cells were then washed with PBS and lysed in Laemmli sample buffer for western blot analysis.
(§2) HepG2 or HEK 293T cells were lysed in Laemmli sample buffer. Proteins were separated by sodium dodecyl sulfate polyacrylamide gel electrophoresis (SDS-PAGE) and transferred onto […] polyvinylidene difluoride (PVDF) membrane (IPVH00010, Merck Millipore). Membranes were blocked using 5% non-fat dry milk in Tris-buffered saline with 0.1% Tween 20 (655204, Merck Millipore) and probed with the respective primary and secondary antibodies. The signal was detected using Clarity™ Western ECL Substrate (1705060, Bio-Rad) and ChemiDoc Imaging System (17001402, Bio-Rad). The antibodies used for immunoblotting were raised against the following proteins: phospho-SMAD1/5/8 ([Persson et al., 1998]; 1:1000), SMAD1 (Cell Signaling Technology, #6944; 1:1000), GAPDH (Merck Millipore, #G8795; 1:5000) and hemagglutinin (HA; Roche, #12CA5; 1:1000).

[3] = test system: BMP6-induced SMAD1/5 phosphorylation; test: BMP6-induced SMAD1/5 phosphorylation in HepG2 cells (immunoblot); format: cell-based, human; conditions: HepG2, BMP6 50 ng/ml; higher concentrations
Method: as §1, §2

caALK6 = test: caALK6-induced SMAD1/5 phosphorylation in HEK 293T cells; format: cell-based, human; conditions: cercosporamide 1-10 µM, LDN193189 200 nM
From the text: as §2
(§3) For experiments with the caALK type I receptor constructs, HEK 293T cells were seeded in 24-well plates at ∼90% confluency and transfected with the DNA expression constructs in the presence of PEI. Thirty hours after transfection, the cells were added to serum-starved medium and treated with compounds for 16 h (overnight). Subsequently, the cells were washed with PBS and lysed in Laemmli sample buffer. […]

caALK3 = molecular target: T4, caALK3 (Homo sapiens, UniProt P36894, Q233D); test: caALK3-induced SMAD1/5 phosphorylation in HEK 293T cells; format: cell-based; conditions: cercosporamide 1-10 µM, LDN193189 200 nM
T4 construct: expressed in transfected cells; host or cells: HEK 293T
T4 sequence (P36894 24-532 Q233D): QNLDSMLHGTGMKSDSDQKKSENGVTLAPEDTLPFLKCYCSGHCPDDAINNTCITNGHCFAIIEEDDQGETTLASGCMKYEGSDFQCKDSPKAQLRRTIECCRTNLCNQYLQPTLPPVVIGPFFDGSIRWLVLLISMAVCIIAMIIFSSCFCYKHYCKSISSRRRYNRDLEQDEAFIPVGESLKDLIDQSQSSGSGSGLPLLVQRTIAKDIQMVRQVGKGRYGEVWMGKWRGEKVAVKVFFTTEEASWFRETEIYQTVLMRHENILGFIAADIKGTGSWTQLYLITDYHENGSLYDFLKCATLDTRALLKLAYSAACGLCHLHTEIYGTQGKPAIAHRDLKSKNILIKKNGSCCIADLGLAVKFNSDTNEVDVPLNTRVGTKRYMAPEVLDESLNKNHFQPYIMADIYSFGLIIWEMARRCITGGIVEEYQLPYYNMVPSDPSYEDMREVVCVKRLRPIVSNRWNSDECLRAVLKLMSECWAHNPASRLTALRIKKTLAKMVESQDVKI
From the text: as §2, §3

## CC(=O)C1=C(O)C=C2Oc3c(C(N)=O)c(O)cc(O)c3[C@]2(C)C1=O [cercosporamide, Cercosporamide]
[1]
  effect on BMP2-induced BRE-luc activity: inhibited the BMP2-induced response in a dose-dependent manner
BMPR1B (ALK6)
  IC50: 390 nM
TGFB-R1 (ALK5)
  IC50: 290 nM
ACV-R1 (ALK2)
  IC50: 600 nM
[2]
  effect on BMP2-induced SMAD1/5 phosphorylation: capable of blocking SMAD1/5 phosphorylation
[3]
  effect on BMP6-induced SMAD1/5 phosphorylation: only minor inhibition
caALK6
  effect on caALK6-induced SMAD1/5 phosphorylation: inhibited SMAD1/5 phosphorylation
caALK3
  effect on caALK3-induced SMAD1/5 phosphorylation: inhibited SMAD1/5 phosphorylation
